We go through eight molecules from ChEMBL document CHEMBL1201862, “PubChem BioAssay data set” (2004).

Test systems include SF-268; RPMI-8226; HCT-116; UACC-62; ACHN; HCC 2998; MDA-MB-435; SK-MEL-2; 786-0; U-251; HOP-92; HCT-15; SF-295; OVCAR-3; SK-MEL-5; SNB-19; NCI-H226; NCI/ADR-RES; IGROV-1; CCRF-CEM.
Common to all, as to experiment: NCI-60 cell line screen, 48 h

Each structure is given as a SMILES string.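 Following 48 hours of exposure in 96-well plates, responses at five concentrations were used to interpolate endpoints linearly. At the GI50, growth is halved.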 Calls of active or inactive are those of the source. Rule as the data show it: active = GI50 up to about 1.1 µM and inactive = higher.

Turning to `C=CCOC(=O)C1=C(CCC[C@@H](C)O[Si](C)(C)C(C)(C)C)N=C(N)N2[C@H](CCO)CC[C@@H]12`, the GI50 in the assay with SF-268 was 17.3 µM (inactive); in the assay with RPMI-8226, 9.44 µM (inactive); with HCT-116 it was 8.28 µM (inactive); with UACC-62, 15.8 µM (inactive); with ACHN, 17.7 µM (inactive); in the assay on HCC 2998, 18.7 µM (inactive). Also, the GI50 with MDA-MB-435 is 14.7 µM (inactive); in the assay on SK-MEL-2 it was 15.3 µM (inactive); in the assay with 786-0 it was 17.9 µM (inactive); in the assay on U-251, 12.3 µM (inactive); with HOP-92, 13.6 µM (inactive); in the assay on HCT-15 it was 17.7 µM. The GI50 was 12.6 µM (inactive) in the assay with SF-295; 11.1 µM (inactive) in the assay on OVCAR-3; 12.4 µM (inactive) in the assay with SK-MEL-5; 15.5 µM (inactive) with SNB-19; 18.5 µM (inactive) in the assay with NCI-H226; 19.7 µM (inactive) in the assay with NCI/ADR-RES.

In the case of `COc1cc2c(c3nc4ccccc4nc13)-c1ccc(SC)c(=O)cc1[C@@H](NC(C)=O)CC2`, the GI50 was 0.144 µM (active) with SF-268; 0.0387 µM (active) with RPMI-8226; 0.0267 µM (active) in the assay on IGROV-1; 0.0372 µM (active) in the assay with HCT-116; 0.0373 µM (active) with UACC-62; 1.15 µM (inactive) in the assay with ACHN. In addition, the GI50 with HCC 2998 is 0.0935 µM (active); in the assay on MDA-MB-435 it was 0.0166 µM (active); in the assay on 786-0 it was 0.115 µM (active); with U-251, 0.0345 µM (active); with HOP-92 it was 0.149 µM (active); in the assay on HCT-15, 1.23 µM. For the same molecule, the GI50 with CCRF-CEM is 0.0601 µM (active); in the assay on SF-295, 0.216 µM (active); in the assay on OVCAR-3, 0.0545 µM (active); in the assay on SK-MEL-5, 0.0347 µM (active); with SNB-19, 0.0475 µM (active); with NCI-H226, 0.135 µM (active). Moreover, the GI50 in the assay with NCI/ADR-RES is 6.9 µM (inactive).

Turning to `COc1ccc2c(c1)c1c(n2CCN2CCOCC2)-c2ccccc2CC1`, the GI50 is 42.3 µM (inactive) in the assay on SF-268; 22.5 µM (inactive) in the assay on RPMI-8226; 37.2 µM (inactive) with IGROV-1; 33.5 µM (inactive) in the assay with HCT-116; > 100 µM (inactive) with UACC-62; 38.5 µM (inactive) in the assay with ACHN. Besides, the GI50 in the assay with HCC 2998 is 20.7 µM (inactive); with MDA-MB-435, 34 µM (inactive); in the assay on SK-MEL-2, 25.4 µM (inactive); with 786-0, 37.4 µM (inactive); with U-251, 29.9 µM (inactive); in the assay on HOP-92 it was 46.8 µM (inactive). Also, the GI50 in the assay on HCT-15 was 29.9 µM; with CCRF-CEM, 27.2 µM (inactive); in the assay on SF-295, 27.9 µM (inactive); in the assay with OVCAR-3, 44.8 µM (inactive); in the assay with SK-MEL-5, 20.7 µM (inactive); in the assay with NCI-H226 it was 21.4 µM (inactive). In addition, the GI50 with NCI/ADR-RES is 35.5 µM (inactive).

`CC(=O)OC(OC(C)=O)c1c2ccccc2cc2ccccc12`: the GI50 was 18.4 µM (inactive) in the assay with SF-268; 16.6 µM (inactive) in the assay on RPMI-8226; 21.2 µM (inactive) in the assay on IGROV-1; 10.3 µM (inactive) with HCT-116; 15.9 µM (inactive) in the assay on UACC-62; 24.1 µM (inactive) in the assay with ACHN. Besides, the GI50 in the assay with HCC 2998 is 15.6 µM (inactive); with MDA-MB-435 it was 24.6 µM (inactive); in the assay on 786-0, 20.3 µM (inactive); in the assay on U-251 it was 5.98 µM (inactive); in the assay on HOP-92, 21.4 µM (inactive); with HCT-15, 7.55 µM. For the same molecule, the GI50 with CCRF-CEM is 2.39 µM (inactive); with SF-295, 20.7 µM (inactive); with OVCAR-3, 21.4 µM (inactive); with SK-MEL-5 it was 11.9 µM (inactive); in the assay on SNB-19 it was 14.8 µM (inactive); in the assay on NCI-H226, 17.9 µM (inactive). Also, the GI50 in the assay on NCI/ADR-RES was 8.34 µM (inactive).

`O=C(O)c1c(CC(Cc2ccc3c(c2)CCC3)C(=O)O)ccc2c1CCC2` (stereo not drawn): the GI50 with RPMI-8226, in the assay with IGROV-1, in the assay with HCT-116, in the assay with ACHN, in the assay on HCC 2998 and in the assay on MDA-MB-435 was > 100 µM (inactive) throughout. For the same molecule, the GI50 in the assay on SK-MEL-2 was > 100 µM (inactive); with 786-0, > 100 µM (inactive); with U-251 it was > 100 µM (inactive); in the assay on HOP-92, > 100 µM (inactive); in the assay with HCT-15, over 100 µM; in the assay on CCRF-CEM, > 100 µM (inactive). Further, the GI50 in the assay with SF-295, in the assay with OVCAR-3, in the assay with SK-MEL-5, in the assay with SNB-19, with NCI-H226 and in the assay with NCI/ADR-RES was > 100 µM (inactive) in each case.

On to `O=C1N/C(=N/N=C/C(O)C(O)C(O)CO)N/C1=C\c1ccco1` (stereo not drawn), for which the GI50 with SF-268, in the assay on RPMI-8226, in the assay on IGROV-1, in the assay on HCT-116, in the assay on UACC-62 and in the assay with ACHN was > 100 µM (inactive) each time. Further, the GI50 in the assay on HCC 2998 is > 100 µM (inactive); with MDA-MB-435 it was > 100 µM (inactive); in the assay on 786-0, > 100 µM (inactive); with U-251 it was > 100 µM (inactive); with HOP-92, > 100 µM (inactive); in the assay with HCT-15, over 100 µM. Besides, the GI50 in the assay with CCRF-CEM is 93.1 µM (inactive); in the assay on SF-295 it was > 100 µM (inactive); in the assay on OVCAR-3, > 100 µM (inactive); in the assay with SK-MEL-5 it was > 100 µM (inactive); with SNB-19 it was 0.0354 µM (active); with NCI-H226 it was > 100 µM (inactive). For the same molecule, in the assay on NCI/ADR-RES, the GI50 is > 100 µM (inactive).

With `COc1ccc(C(SCCO)(c2ccc(OC)cc2)c2ccc(OC)cc2)cc1`, the GI50 is 17.3 µM (inactive) in the assay with SF-268; 14.3 µM (inactive) in the assay with HCT-116; 14 µM (inactive) with UACC-62; 17.7 µM (inactive) in the assay on ACHN; 14.4 µM (inactive) in the assay on HCC 2998; 5.79 µM (inactive) in the assay with MDA-MB-435. Besides, the GI50 in the assay with SK-MEL-2 is 14.1 µM (inactive); with 786-0, 14.2 µM (inactive); in the assay on U-251 it was 10.6 µM (inactive); in the assay with HOP-92, 10.1 µM (inactive); in the assay with HCT-15, 11.4 µM; in the assay on CCRF-CEM, 7.23 µM (inactive). Also, the GI50 with SF-295 is 12.4 µM (inactive); in the assay with OVCAR-3, 10.5 µM (inactive); with SK-MEL-5, 12.2 µM (inactive); in the assay with SNB-19, 26.9 µM (inactive); with NCI-H226, 13.9 µM (inactive); in the assay with NCI/ADR-RES it was 13.6 µM (inactive).

For the molecule `O=C1C(C(O)(C(F)(F)Cl)C(F)(F)Cl)CCCC1C(O)(C(F)(F)Cl)C(F)(F)Cl` (stereo not drawn), the GI50 in the assay with SF-268, in the assay with IGROV-1, in the assay on HCT-116, in the assay on UACC-62, in the assay on ACHN and in the assay with HCC 2998 was > 10 µM (inactive) throughout. In addition, the GI50 in the assay on MDA-MB-435 was > 10 µM (inactive); in the assay with SK-MEL-2, > 10 µM (inactive); with 786-0, > 10 µM (inactive); with U-251, > 10 µM (inactive); in the assay on HOP-92 it was 5.11 µM (inactive); in the assay with HCT-15, over 10 µM. Besides, the GI50 with SF-295, with OVCAR-3, with SK-MEL-5, in the assay on SNB-19, with NCI-H226 and with NCI/ADR-RES was > 10 µM (inactive) throughout.
